Results from the supplement of paper PMC7017272.
± gives the standard deviation of the averaged measurements.

What was measured:
UT-SCC-24A [1] = test: drug sensitivity score (DSS); higher = more sensitive; details: treatment time: 3 days
Method: (§1)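 HNSCC cell lines (500 cells/well, 384-well) were cultured on plastic, on top of (2D) or embedded (3D) in Matrigel or human leiomyoma matrix Myogel (500 ug/mL; Myogel 3D mixed with rat collagen I). Cells were treated for 3 days with 5 ten-fold concentrations of each drug, and viability was read by CellTiter-Glo. Suffixes _1/_2/_3 on drug names are replicates.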

UT-SCC-24A [2] = test: maximal % inhibition of viability relative to DMSO; higher = stronger effect; details: treatment time: 3 days
Method: as §1, with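 “CellTiter-Glo. Viability was normalised to DMSO (0% inhibition) and 100 uM benzethonium chloride (100% inhibition) controls and fitted with the FIMM DSRT pipeline to give IC50 (nM), maximal % inhibition and the drug sensitivity score (DSS).” for “CellTiter-Glo.”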

UT-SCC-106A = test: drug sensitivity score (DSS); higher = more sensitive; extreme values may be limits of the assay; details: treatment time: 3 days
Method in brief: (§2)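 Viability was read with CellTiter-Glo 2.0 luminescence and scaled against vehicle (0.1% DMSO) and cell-killing control wells. The assay used HPV-negative HNSCC cell lines at 500 cells/well in 384-well plates, grown on plastic, on Matrigel or Myogel coatings (500 µg/mL), or embedded in Matrigel or Myogel plus rat collagen I, and treated for 3 days at five 10-fold concentrations. IC50, maximal inhibition and drug sensitivity score were derived from percent-inhibition dose–response curves fitted in the FIMM pipeline.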

UT-SCC-14 = test: as above; details: treatment time: 3 days
Method in brief: as §2

UT-SCC-24B = test: as above; details: treatment time: 3 days
Method in brief: as §2

UT-SCC-28 = test: as above; details: treatment time: 3 days
Method in brief: as §2

UT-SCC-40 = test: as above; details: treatment time: 3 days
Method in brief: as §2

UT-SCC-42A = test: as above; details: treatment time: 3 days
Method in brief: as §2

UT-SCC-42B = test: as above; details: culture condition: embedded in Matrigel; treatment time: 3 days
Method in brief: as §2

[3] = culture condition: embedded in Matrigel
[4] = culture condition: embedded in Myogel + collagen I
[5] = culture condition: on top of Matrigel
[6] = culture condition: on top of Myogel
[7] = culture condition: plastic 2D (no matrix)

Cn1c(=O)n(-c2ccc(C(C)(C)C#N)cc2)c2c3cc(-c4cnc5ccccc5c4)ccc3ncc21 [Dactolisib]
drug sensitivity score (UT-SCC-24A [1]; [3]): 5.73 ± 5 DSS
drug sensitivity score (UT-SCC-24A [1]; [4]): 0.767 ± 1.3 DSS
drug sensitivity score (UT-SCC-24A [1]; [5]): 0 DSS
drug sensitivity score (UT-SCC-24A [1]; [6]): 0 DSS
drug sensitivity score (UT-SCC-24A [1]; [7]): 0 DSS
maximal % inhibition of viability (UT-SCC-24A [2]; [3]): 34.6 ± 9%
maximal % inhibition of viability (UT-SCC-24A [2]; [4]): 14.9 ± 11%
maximal % inhibition of viability (UT-SCC-24A [2]; [5]): 14.7 ± 5.4%
maximal % inhibition of viability (UT-SCC-24A [2]; [6]): 4.17 ± 3.1%
maximal % inhibition of viability (UT-SCC-24A [2]; [7]): 6.6 ± 2.1%
drug sensitivity score (UT-SCC-106A; [3]): 0 DSS
drug sensitivity score (UT-SCC-106A; [4]): 0 DSS
drug sensitivity score (UT-SCC-106A; [5]): 0 DSS
drug sensitivity score (UT-SCC-106A; [6]): 0 DSS
drug sensitivity score (UT-SCC-106A; [7]): 0.0333 ± 0.058 DSS
drug sensitivity score (UT-SCC-14; [3]): 3.03 ± 5.2 DSS
drug sensitivity score (UT-SCC-14; [4]): 0 DSS
drug sensitivity score (UT-SCC-14; [5]): 0 DSS
drug sensitivity score (UT-SCC-14; [6]): 0 DSS
drug sensitivity score (UT-SCC-14; [7]): 0.3 ± 0.52 DSS
drug sensitivity score (UT-SCC-24B; [3]): 11.6 ± 0.64 DSS
drug sensitivity score (UT-SCC-24B; [4]): 16.3 ± 0.52 DSS
drug sensitivity score (UT-SCC-24B; [5]): 13.4 ± 0.46 DSS
drug sensitivity score (UT-SCC-24B; [6]): 13.6 ± 0.51 DSS
drug sensitivity score (UT-SCC-24B; [7]): 12.8 ± 0.25 DSS
drug sensitivity score (UT-SCC-28; [3]): 0 DSS
drug sensitivity score (UT-SCC-28; [4]): 0.133 ± 0.23 DSS
drug sensitivity score (UT-SCC-28; [5]): 0.1 ± 0.17 DSS
drug sensitivity score (UT-SCC-28; [7]): 0 DSS
drug sensitivity score (UT-SCC-40; [3]): 0.5 ± 0.87 DSS
drug sensitivity score (UT-SCC-40; [4]): 0 DSS
drug sensitivity score (UT-SCC-40; [5]): 0 DSS
drug sensitivity score (UT-SCC-40; [6]): 0 DSS
drug sensitivity score (UT-SCC-40; [7]): 0 DSS
drug sensitivity score (UT-SCC-42A; [3]): 0 DSS
drug sensitivity score (UT-SCC-42A; [4]): 0 DSS
drug sensitivity score (UT-SCC-42A; [5]): 0 DSS
drug sensitivity score (UT-SCC-42A; [6]): 0 DSS
drug sensitivity score (UT-SCC-42A; [7]): 0 DSS
drug sensitivity score (UT-SCC-42B): 0 DSS
